Earlier results on one molecule are cited in patent publication US8748481B2, “Method for treating gastrointestinal disorder” (Sucampo AG, priority 2004, dated 2014).

This data set deals with patients with IBS with constipation / chronic idiopathic constipation. The settings on record: cited from earlier work.

Structures can show the parent of a compound that is named as a salt.

On to `[H]/N=C(/NCCCCC)N/N=C/c1c[nH]c2ccc(OC)cc12` [Zelnorm®, tegaserod maleate], for which the “Return of symptoms after stopping” value (after patients stop taking the drug) was “may return within 1 or 2 weeks”. The “Treatment effect over placebo in patients aged 65 years and older” value (subgroup analyses) is given as “no significant treatment effect”. The “Response rates vs. placebo in males” value (two randomized, placebo-controlled, double-blind studies enrolling 288 males) is reported as “no significant differences”.
